# Test results from patent US10813935B2, “Methods and compositions for treating drug resistance in cancer” (UNIVERSITY OF SOUTH FLORIDA, priority 2017, dated 2020).
# Assays:
# [1] = tested on: H1975, H1650 and H1299 human lung cancer cell lines (parental and drug resistant); experiment: Drug sensitivity in parental and DR cell lines, Cell Titer Glo cell viability; assay type: cell-based
# Description: To investigate drug resistance to EGFR TKIs, we developed lapatinib resistant human lung cancer cell lines as model for de novo drug resistance. To derive drug resistant (DR) cells, H1975 human lung cancer cells, that carry L858R and T790M point mutations in exons 20 and 21 of EGFR, were grown in a static concentration of lapatinib for up to 30 days. We also developed EGFR TKI resistant H1650 and H1299 human lung cancer cell lines to confirm any potential findings in cell lines with different EGFR mutations, thereby enhancing the reproducibility and relevance of the work. The drug sensitivity of the parental and DR cells on both the monolayer and the 3D scaffold were determined by testing a panel of standard-of-care chemotherapeutics along with EGFR TKIs. Drug sensitivity in parental- and DR-cell lines were determined. Cells were treated in triplicates with indicated concentrations of the identified drug for 72 hours in monolayer cultures and for 48 hours in scaffold cultures. For cells grown on the scaffold, drugs were added on day 3, as compared to 24 hours for monolayer. Cell viability was determined using Cell Titer Glo assay (Promega). Average luminescence as a percentage of control in lapatinib treated cultures on the monolayer (Blue) and the scaffold (Red) is shown. Experiments were repeated at least two times. […]
# p-EGFR = experiment: Western blot of whole cell lysates (cleaved EGFR, p-EGFR, CYP51A1) after drug treatment; assay type: cell-based, human; settings: treated 48 hours
# Description: Cells were treated with lapatinib or ketoconazole for 48 hours. The expression of cleaved EGFR, p-EGFR, CYP51A1 were examined using western blotting of the whole cell lysates. β-Actin was included as a loading control.
# H1650 cells = experiment: Development of lapatinib resistance in parental H1650 cells, bright field microscopy; assay type: cell-based, human; settings: drugs added at plating, 72 hours
# Description: Drug-resistant cells (DR) were compared to parental cell lines. 500,000 H1650 cells were plated in 1 well of a 6-well plate and treated with the indicated drugs at the time of plating. They were allowed to grow for 72 hours.
SMILES,resistance of EGFR TKI resistant cells to other anti-cancer agents [1],"p-EGFR in the H1650-DR cells (p-EGFR; H1650-DR cells, western blot)",EGFR downstream signaling (p-EGFR; western blot of whole cell lysates),development of lapatinib resistance in parental H1650 cells (H1650 cells)
Nc1ccn([C@@H]2O[C@H](CO)[C@@H](O)C2(F)F)c(=O)n1 [gemcitabine],resistant,–,–,–
CC(=O)N1CCN(c2ccc(OCC3COC(Cn4ccnc4)(c4ccc(Cl)cc4Cl)O3)cc2)CC1 (centres unmarked) [ketoconazole],–,inhibited p-EGFR,induced lowering of EGFR downstream signaling,alleviated development of lapatinib resistant
CC(=O)O[C@H]1C(=O)[C@@]2(C)[C@H]([C@H](OC(=O)c3ccccc3)[C@]3(O)C[C@H](OC(=O)[C@H](O)[C@@H](NC(=O)c4ccccc4)c4ccccc4)C(C)=C1C3(C)C)[C@]1(OC(C)=O)CO[C@@H]1C[C@@H]2O [taxol],resistant,–,–,–
